{"source": "patent US10168342B2", "about": "“Lipid probes and uses thereof” (THE SCRIPPS RESEARCH INSTITUTE, priority 2015, dated 2019)", "key": {"[1]": {"target": "T1, AEA-DA lipid probe targets in Neuro2a cells (Mus musculus, UniProt Q8BVE8)", "T1 sequence (Q8BVE8 1-1365)": "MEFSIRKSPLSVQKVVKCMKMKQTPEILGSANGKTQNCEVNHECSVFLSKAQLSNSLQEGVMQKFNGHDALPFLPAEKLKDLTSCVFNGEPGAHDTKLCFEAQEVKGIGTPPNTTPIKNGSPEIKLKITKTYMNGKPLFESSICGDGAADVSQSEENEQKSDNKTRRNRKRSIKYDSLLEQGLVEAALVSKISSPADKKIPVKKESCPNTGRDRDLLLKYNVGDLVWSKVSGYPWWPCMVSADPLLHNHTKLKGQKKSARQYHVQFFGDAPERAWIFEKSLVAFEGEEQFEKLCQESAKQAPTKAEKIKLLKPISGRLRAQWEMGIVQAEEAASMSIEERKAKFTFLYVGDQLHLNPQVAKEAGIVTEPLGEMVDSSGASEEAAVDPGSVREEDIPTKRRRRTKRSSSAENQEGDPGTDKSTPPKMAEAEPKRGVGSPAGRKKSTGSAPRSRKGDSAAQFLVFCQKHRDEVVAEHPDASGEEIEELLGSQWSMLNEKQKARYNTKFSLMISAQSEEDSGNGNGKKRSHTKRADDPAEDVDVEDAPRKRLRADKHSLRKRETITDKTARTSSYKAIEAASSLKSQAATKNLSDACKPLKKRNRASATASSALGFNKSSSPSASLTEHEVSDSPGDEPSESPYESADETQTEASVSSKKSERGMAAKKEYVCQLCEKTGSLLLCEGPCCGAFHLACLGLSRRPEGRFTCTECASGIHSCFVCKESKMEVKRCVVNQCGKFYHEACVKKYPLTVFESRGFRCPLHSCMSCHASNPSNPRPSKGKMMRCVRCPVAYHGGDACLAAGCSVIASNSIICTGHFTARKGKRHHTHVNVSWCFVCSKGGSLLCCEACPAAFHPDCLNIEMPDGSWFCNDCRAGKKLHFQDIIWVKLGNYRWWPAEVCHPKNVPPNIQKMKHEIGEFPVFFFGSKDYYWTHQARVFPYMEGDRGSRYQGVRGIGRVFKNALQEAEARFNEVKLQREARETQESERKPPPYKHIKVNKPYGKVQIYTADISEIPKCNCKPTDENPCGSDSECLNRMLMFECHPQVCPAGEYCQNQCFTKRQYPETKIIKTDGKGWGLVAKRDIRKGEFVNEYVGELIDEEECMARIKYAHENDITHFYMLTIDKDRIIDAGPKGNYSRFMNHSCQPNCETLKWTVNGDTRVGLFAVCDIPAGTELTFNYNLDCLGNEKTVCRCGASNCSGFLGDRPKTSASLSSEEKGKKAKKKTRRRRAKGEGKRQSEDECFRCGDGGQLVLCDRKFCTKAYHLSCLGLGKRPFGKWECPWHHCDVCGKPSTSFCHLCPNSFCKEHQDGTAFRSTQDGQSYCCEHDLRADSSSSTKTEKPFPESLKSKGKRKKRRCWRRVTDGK"}, "[2]": {"target": "T2, AEA-DA lipid probe targets in Neuro2a cells (Mus musculus, UniProt Q11011)", "T2 sequence (Q11011 1-920)": "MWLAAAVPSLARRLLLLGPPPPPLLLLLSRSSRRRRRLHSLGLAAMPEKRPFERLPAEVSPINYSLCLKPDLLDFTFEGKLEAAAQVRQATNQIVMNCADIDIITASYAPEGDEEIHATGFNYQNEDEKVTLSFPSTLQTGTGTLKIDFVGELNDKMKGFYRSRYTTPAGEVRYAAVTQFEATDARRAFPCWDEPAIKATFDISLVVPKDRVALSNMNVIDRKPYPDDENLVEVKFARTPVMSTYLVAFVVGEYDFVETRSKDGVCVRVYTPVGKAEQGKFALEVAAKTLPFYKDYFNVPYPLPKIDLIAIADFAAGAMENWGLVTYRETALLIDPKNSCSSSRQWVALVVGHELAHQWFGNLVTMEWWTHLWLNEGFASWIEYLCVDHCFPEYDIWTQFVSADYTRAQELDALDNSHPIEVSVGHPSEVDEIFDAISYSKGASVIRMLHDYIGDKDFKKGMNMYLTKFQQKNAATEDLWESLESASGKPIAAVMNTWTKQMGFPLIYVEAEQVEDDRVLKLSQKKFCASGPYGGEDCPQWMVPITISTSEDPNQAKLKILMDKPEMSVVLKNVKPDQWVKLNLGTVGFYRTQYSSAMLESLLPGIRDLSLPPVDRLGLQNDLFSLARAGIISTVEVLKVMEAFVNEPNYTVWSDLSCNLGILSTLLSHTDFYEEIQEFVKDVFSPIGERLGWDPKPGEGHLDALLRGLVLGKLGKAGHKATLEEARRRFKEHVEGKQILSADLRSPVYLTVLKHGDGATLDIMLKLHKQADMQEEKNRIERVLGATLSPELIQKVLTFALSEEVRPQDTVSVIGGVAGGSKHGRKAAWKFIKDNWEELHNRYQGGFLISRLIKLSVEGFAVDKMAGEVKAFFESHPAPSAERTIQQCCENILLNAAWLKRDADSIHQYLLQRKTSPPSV"}, "[3]": {"target": "T3, AEA-DA lipid probe targets in Neuro2a cells (Mus musculus, UniProt Q8VCX5)", "T3 sequence (Q8VCX5 34-477)": "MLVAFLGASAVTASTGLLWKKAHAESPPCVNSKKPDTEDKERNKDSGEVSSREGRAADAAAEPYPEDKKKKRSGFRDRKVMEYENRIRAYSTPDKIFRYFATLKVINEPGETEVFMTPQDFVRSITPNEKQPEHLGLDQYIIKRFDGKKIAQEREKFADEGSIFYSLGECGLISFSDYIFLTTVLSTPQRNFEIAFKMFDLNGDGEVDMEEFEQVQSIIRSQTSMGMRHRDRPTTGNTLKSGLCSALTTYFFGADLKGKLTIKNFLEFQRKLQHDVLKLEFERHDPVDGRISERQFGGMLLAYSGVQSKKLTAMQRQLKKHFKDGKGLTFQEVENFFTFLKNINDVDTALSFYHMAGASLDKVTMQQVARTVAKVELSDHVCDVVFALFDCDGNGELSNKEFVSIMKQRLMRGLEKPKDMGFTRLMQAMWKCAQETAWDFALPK", "settings": "protein Micu1, Neuro2a cells"}}, "note": "Read-outs that look alike come from different tables or passages of the source.", "data": [{"smiles": "CCCCC/C=C\\C/C=C\\C/C=C\\C/C=C\\CCCC(=O)NCCO", "note": "[AEA, anandamide, reference compound]", "values": [{"measurement": "SILAC ratio Whsc1", "setting": "[1]; competitor 200 μM", "value": 1.0}, {"measurement": "SILAC ratio Npepps", "setting": "[2]; competitor 200 μM", "value": 1.1}]}, {"smiles": "CN1CCN(C(=O)c2[nH]c3ccc([N+](=O)[O-])cc3c2-c2ccccc2)CC1", "note": "[MJN228, (4-Methylpiperazin-1-yl)(5-nitro-3-phenyl-1H-indol-2-yl)methanone]", "values": [{"measurement": "SILAC ratio (AEA-DA competition)", "setting": "[3]; competitor 10 μM", "value": 1.2}, {"measurement": "SILAC ratio (AEA-DA competition)", "setting": "[3]; competitor 25 μM", "value": 1.5}, {"measurement": "SILAC ratio Whsc1", "setting": "[1]; competitor 10 μM", "value": 1.4}, {"measurement": "SILAC ratio Whsc1", "setting": "[1]; competitor 25 μM", "value": 1.2}, {"measurement": "SILAC ratio Whsc1", "setting": "[1]; competitor 100 μM", "value": 1.6}, {"measurement": "SILAC ratio Npepps", "setting": "[2]; competitor 25 μM", "value": 1.5}, {"measurement": "SILAC ratio Npepps", "setting": "[2]; competitor 100 μM", "value": 4.3}]}, {"smiles": "C=CCN(C)CCCCCCOc1ccc(C(=O)c2ccc(Br)cc2)c(F)c1", "note": "[Ro 48-8071, reference compound]", "values": [{"measurement": "SILAC ratio (AEA-DA competition)", "setting": "[3]; competitor 25 μM", "value": 0.9}]}]}
